Test results as given in ChEMBL document CHEMBL1139118, “A novel, non-substrate-based series of glycine type 1 transporter inhibitors derived from high-throughput screening” (Bioorg Med Chem Lett, 2007).

What was measured:
[1] = molecular target: 5-hydroxytryptamine receptor 1B (Homo sapiens, UniProt P28222); assay: Displacement of [3H]5-hydroxytrytamine from human 5HT1B receptor expressed in HEK293 cells; format: cell-based
[2] = molecular target: T1, Sodium- and chloride-dependent glycine transporter 1 (Homo sapiens, UniProt P48067); assay: Displacement of [3H]NPTS from human GlyT1C expressed in HEK293 cells; format: cell-based
T1 sequence (P48067 whole entry): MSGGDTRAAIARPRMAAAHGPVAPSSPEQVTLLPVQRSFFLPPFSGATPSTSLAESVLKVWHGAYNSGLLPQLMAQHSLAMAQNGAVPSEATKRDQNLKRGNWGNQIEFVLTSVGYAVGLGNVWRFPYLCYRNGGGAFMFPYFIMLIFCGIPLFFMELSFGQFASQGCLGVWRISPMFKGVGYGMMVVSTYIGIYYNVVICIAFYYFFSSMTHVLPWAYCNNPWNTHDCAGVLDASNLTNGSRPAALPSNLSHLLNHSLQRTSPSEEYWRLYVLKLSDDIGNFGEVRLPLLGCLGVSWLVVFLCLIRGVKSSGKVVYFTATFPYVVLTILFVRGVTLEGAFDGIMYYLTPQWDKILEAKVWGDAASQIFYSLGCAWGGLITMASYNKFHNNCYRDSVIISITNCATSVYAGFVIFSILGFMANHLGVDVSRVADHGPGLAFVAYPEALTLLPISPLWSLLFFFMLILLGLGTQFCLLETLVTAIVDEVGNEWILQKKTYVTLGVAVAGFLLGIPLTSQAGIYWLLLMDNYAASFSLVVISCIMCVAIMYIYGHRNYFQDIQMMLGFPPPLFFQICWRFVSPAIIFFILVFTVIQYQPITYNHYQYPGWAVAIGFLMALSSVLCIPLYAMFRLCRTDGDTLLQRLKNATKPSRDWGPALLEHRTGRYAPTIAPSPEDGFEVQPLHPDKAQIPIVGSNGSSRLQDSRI

[3] = molecular target: Voltage-gated inwardly rectifying potassium channel KCNH2 (Homo sapiens, UniProt Q12809); assay: Displacement of [3H]dofetilide from human ERG channel expressed in HEK293 cells
CYP2D6 = CYP2D6 (Homo sapiens, UniProt P10635); assay: Inhibition of human recombinant CYP2D6 at 1.5 uM; format: ADME
[4] = Metabolic stability in human liver microsomes assessed as half life; format: ADME, Microsome
[5] = molecular target: T2, Sodium- and chloride-dependent glycine transporter 2 (Homo sapiens, UniProt Q9Y345); assay: Inhibition of [3H]glycine uptake at human GlyT2 expressed in HEK293 cells; format: cell-based
T2 sequence (Q9Y345 whole entry): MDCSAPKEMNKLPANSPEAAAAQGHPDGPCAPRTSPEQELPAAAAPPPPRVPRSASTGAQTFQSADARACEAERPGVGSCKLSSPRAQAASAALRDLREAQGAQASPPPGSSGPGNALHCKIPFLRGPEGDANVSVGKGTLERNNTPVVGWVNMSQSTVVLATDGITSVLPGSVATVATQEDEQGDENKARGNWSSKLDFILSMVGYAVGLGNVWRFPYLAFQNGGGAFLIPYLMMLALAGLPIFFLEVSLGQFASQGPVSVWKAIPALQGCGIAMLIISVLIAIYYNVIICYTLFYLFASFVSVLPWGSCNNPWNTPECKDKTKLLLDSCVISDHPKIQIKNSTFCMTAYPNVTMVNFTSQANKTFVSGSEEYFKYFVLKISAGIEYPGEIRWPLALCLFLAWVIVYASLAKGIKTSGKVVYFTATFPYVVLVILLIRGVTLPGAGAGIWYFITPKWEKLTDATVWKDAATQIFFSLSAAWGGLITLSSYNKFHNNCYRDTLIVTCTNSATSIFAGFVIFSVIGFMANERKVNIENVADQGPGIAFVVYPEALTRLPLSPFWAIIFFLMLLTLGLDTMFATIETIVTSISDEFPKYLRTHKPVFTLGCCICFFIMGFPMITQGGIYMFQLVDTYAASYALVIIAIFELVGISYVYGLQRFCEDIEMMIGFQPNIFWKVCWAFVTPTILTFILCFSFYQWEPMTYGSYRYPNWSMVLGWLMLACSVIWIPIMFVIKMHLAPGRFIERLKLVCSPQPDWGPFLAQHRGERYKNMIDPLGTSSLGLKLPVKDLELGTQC

Sequence of Voltage-gated inwardly rectifying potassium channel KCNH2 (Q12809 whole entry): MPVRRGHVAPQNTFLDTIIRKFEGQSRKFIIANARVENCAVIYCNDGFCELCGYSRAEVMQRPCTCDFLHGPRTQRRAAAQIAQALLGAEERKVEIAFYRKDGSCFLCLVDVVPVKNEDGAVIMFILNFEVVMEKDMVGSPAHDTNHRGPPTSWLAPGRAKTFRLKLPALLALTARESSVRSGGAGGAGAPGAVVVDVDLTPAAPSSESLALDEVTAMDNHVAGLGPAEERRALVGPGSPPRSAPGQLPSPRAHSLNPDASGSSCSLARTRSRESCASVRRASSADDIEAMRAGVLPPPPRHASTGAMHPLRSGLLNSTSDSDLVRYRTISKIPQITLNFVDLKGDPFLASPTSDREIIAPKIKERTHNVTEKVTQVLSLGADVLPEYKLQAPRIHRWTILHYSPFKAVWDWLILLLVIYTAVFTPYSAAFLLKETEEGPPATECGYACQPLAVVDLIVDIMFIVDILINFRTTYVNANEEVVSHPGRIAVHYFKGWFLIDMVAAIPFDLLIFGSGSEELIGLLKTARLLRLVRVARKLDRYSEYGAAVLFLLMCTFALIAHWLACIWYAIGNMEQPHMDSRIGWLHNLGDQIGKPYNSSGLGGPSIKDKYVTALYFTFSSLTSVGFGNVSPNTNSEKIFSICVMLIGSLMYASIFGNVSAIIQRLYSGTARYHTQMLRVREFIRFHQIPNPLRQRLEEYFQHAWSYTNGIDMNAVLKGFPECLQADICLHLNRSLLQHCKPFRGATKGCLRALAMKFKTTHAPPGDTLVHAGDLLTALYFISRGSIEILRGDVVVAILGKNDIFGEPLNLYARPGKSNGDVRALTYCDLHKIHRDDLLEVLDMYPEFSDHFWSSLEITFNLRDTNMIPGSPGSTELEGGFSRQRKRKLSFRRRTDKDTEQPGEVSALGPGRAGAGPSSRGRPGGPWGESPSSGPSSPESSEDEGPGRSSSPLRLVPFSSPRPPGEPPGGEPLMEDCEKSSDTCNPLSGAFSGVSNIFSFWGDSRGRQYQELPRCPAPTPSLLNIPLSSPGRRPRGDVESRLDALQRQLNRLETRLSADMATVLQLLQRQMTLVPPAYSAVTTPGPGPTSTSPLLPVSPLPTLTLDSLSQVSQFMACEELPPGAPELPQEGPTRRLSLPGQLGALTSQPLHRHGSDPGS
Sequence of 5-hydroxytryptamine receptor 1B (P28222 whole entry): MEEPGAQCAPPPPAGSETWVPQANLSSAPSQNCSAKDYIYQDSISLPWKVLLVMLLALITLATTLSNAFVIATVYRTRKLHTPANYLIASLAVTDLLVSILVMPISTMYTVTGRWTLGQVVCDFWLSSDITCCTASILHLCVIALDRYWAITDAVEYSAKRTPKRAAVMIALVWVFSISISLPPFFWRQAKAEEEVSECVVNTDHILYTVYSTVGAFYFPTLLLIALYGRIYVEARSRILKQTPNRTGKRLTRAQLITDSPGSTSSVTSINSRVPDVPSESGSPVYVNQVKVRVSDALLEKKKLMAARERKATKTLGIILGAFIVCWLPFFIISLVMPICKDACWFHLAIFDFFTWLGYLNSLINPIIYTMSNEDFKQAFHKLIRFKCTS
Sequence of CYP2D6 (P10635 whole entry): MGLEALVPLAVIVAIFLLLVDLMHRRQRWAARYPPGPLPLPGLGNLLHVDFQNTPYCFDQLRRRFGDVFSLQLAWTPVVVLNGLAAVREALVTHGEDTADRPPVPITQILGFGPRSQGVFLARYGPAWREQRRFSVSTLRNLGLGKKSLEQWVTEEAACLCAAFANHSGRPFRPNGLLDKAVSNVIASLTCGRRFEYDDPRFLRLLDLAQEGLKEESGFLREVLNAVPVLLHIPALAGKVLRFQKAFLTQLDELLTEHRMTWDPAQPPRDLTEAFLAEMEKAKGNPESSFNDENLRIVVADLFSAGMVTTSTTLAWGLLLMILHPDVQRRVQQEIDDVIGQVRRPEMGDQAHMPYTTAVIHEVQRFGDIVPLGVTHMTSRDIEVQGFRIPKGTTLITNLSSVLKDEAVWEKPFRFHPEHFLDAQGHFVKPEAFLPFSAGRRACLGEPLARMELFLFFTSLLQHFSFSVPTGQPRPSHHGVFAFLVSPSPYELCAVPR

| SMILES | Ki [1] | Ki [2] | Ki [3] | inhibition at 1.5 µM (CYP2D6) | half-life [4] | IC50 [5] | IC50 [2] |
| --- | --- | --- | --- | --- | --- | --- | --- |
| CC(C)N1CCN(C2CCc3ccc(OCc4noc(-c5ccc(Cl)cc5)n4)cc32)CC1 (configuration not stated) | 31 nM | 394 nM | 98.1 nM | 43% | 13 min | – | – |
| CC1CC(N2CCN(C3CCc4ccc(OCc5noc(-c6ccc(Cl)cc6)n5)cc43)CC2)CC1C (configuration not stated) | 414 nM | 134 nM | – | 29% | 7 min | – | – |
| OCC1(N2CCN(C3CCc4ccc(OCc5noc(-c6ccccc6F)n5)cc43)CC2)CCCC1 (configuration not stated) | – | 61.4 nM | – | 85% | 14 min | 31.5 nM | – |
| OCC1CCCN(CCCC2CCCc3ccc(OCc4ccc(-c5ccccc5F)cn4)cc32)C1 (configuration not stated) | – | 11 nM | 410 nM | 30% | 24 min | 401 nM | – |
| CCN(Cc1cccc(OCc2noc(-c3ccccc3F)n2)c1)C1CCN(C2CC(C)C(C)C2)C1 (configuration not stated) | – | 85.3 nM | 222 nM | 84% | 26 min | 857 nM | – |
| CN1CCN(c2cccc3ccc(OCc4noc(-c5ccc(Cl)cc5)n4)cc23)CC1 | < 1 nM | 500 nM | – | 75% | 22 min | – | – |
| OCC1(N2CCN(C3CCc4ccc(OCc5noc(-c6ccc(Cl)cc6)n5)cc43)CC2)CCCC1 (configuration not stated) | 1490 nM | – | – | 47% | – | – | – |
| Fc1ccccc1-c1nc(COc2ccc3c(c2)C(N2CCN(C4CCCC4)CC2)CC3)no1 (configuration not stated) | – | 66.8 nM | – | 94% | 12 min | 531 nM | – |
| OCC1(NCCCC2CCc3ccc(OCc4noc(-c5ccc(Cl)cc5)n4)cc32)CCCC1 (configuration not stated) | > 300 nM | 108 nM | 525 nM | 70% | 12 min | – | – |
| OCC1CCCN(CCCC2CCCc3ccc(OCc4noc(-c5ccccc5F)n4)cc32)C1 (configuration not stated) | – | 10.2 nM | 1300 nM | 43% | 17 min | 385 nM | – |
| OCC1CCCN(CCCC2CCCc3ccc(OCc4noc(-c5ccc(Cl)cc5)n4)cc32)C1 (stereo in doubt; 8) | > 1000 nM | 15.9 nM | 271 nM | 96% | 22 min | 319 nM | – |
| OCC1CCCN(CCCC2CCCc3ccc(OCc4noc(-c5ccc(Cl)cc5)n4)cc32)C1 (stereo in doubt; 8A) | – | – | 381 nM | – | – | – | 38 nM |
| OCC1CCCN(CCCC2CCCc3ccc(OCc4noc(-c5ccc(Cl)cc5)n4)cc32)C1 (stereo in doubt; 8B) | – | – | 214 nM | – | – | – | 24 nM |
| OCC1CCCN(CCCC2CCCc3ccc(OCc4noc(-c5ccc(Cl)cc5)n4)cc32)C1 (stereo in doubt; 8C) | – | – | 219 nM | – | – | – | 31 nM |
| OCC1CCCN(CCCC2CCCc3ccc(OCc4noc(-c5ccc(Cl)cc5)n4)cc32)C1 (stereo in doubt; 8D) | – | – | 206 nM | – | – | – | 26 nM |
